Counter-ions that a name gives are not always drawn.
Columns and labels:
[1] = tested on: MMP-1 expression in skin fibroblasts; assay: MMP-1 expression in skin fibroblasts (Western blot); assay type: cell-based, human
Description: (§1) Fibroblasts were plated on day zero and allowed to attach. One day later, the cells were washed and then treated with control culture medium with or without test compound. Cells were harvested and counted on day-3. The culture medium was then assayed via Western blot analysis to determine expression levels of MMP-1.

human keratinocytes = assay: Keratinocyte proliferation assay; assay type: cell-based
Description: Compounds of the Invention were assayed for their ability to inhibit the proliferation of human keratinocytes. Namely, keratinocytes were plated on day zero and allowed to attach. One day later, the cells were washed and then treated with control culture medium with or without the test compound. Cells were harvested and counted on day-2. Value for the time-zero control was determined (mean and standard deviation based on triplicate experiments with n=9 data points). The untreated control value at day 2 was then determined (mean and standard deviation based on triplicate experiments with n=12 data points). All of the values from treated samples were compared to the control values and are expressed as the change from control±the standard deviation based on the three experiments.

ERK-2 kinase = ERK-2 kinase (Homo sapiens, UniProt P28482); assay: Assay against ERK-2 (33-P ATP, myelin basic protein substrate); assay type: biochemical; conditions: non-labeled ATP 1 μM, 22° C.
Description: Compounds of the invention were assayed for ability to inhibit ERK-2 kinase using a 33-P radio-ligand binding assay. 33-P labeled ATP was used as the radio-ligand and myelin basic protein was used as the substrate. A non-labeled ATP concentration of 1 μM was used. Plates were incubated at 22° C. before isolation and radioactivity determination by scintillation counting. The IC50 values (concentration causing a half-maximal inhibition) and Hill coefficients (nH) were determined by non-linear regression analysis of competition curves generated with 10 data points using Hill equation curve fitting.

human skin fibroblasts = assay: Skin fibroblast proliferation; assay type: cell-based; conditions: at higher concentrations
Description: as §1

ERK-2 kinase, sequence (P28482 whole entry): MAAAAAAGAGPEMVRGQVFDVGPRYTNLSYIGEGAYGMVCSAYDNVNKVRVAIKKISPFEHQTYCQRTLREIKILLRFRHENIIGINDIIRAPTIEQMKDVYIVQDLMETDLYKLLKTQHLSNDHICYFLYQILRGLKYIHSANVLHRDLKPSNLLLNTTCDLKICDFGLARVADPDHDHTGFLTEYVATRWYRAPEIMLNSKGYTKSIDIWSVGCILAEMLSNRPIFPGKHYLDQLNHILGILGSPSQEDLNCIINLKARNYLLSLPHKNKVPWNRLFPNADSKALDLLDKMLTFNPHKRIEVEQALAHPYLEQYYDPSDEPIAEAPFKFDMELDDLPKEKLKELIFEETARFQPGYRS

In the case of `Cl.Clc1cccc(-c2cn[nH]c2-c2c[nH]c3ncccc23)c1` [Example 1, 3-[4-(3-Chlorophenyl)-2H-pyrazol-3-yl]-1H-pyrrolo[2,3-b]pyridine Hydrochloride], the MMP-1 expression ([1]; 5 μg/mL, culture medium, day-3, Western blot) is reported as “significantly inhibited”, the “collagenase (MMP-1) production” value ([1]; at higher concentrations, Western blot) is reported as “significant reduction” and the GI50 (human keratinocytes; calculated from Table 2 data, read-out: GI50 (inhibition of keratinocyte proliferation)) is reported as 4.36 µM. For the same molecule, the inhibition at 0.03 µM (human keratinocytes; test concentration 0.03 μM, cells counted on day-2, change from control) was -20%, the inhibition at 0.15 µM (human keratinocytes; test concentration 0.15 μM, cells counted on day-2, change from control) was -13% and the inhibition at 0.3 µM (human keratinocytes; test concentration 0.30 μM, cells counted on day-2, change from control) was -6%. For the same molecule, the inhibition at 1.51 µM (human keratinocytes; test concentration 1.51 μM, cells counted on day-2, change from control) was 8%, the inhibition at 3.02 µM (human keratinocytes; test concentration 3.02 μM, cells counted on day-2, change from control) was 21% and the inhibition at 6.04 µM (human keratinocytes; test concentration 6.04 μM, cells counted on day-2, change from control) was 72%. The inhibition at 15.1 µM (human keratinocytes; test concentration 15.1 μM, cells counted on day-2, change from control) was 118%, the IC50 (ERK-2 kinase) was 1.43 µM and the “effect on fibroblast proliferation” value (human skin fibroblasts) was “minimal effect”.

`c1ccc(-c2cn[nH]c2-c2c[nH]c3ncccc23)cc1` [Example 2, 3-[4-Phenyl-2H-pyrazol-3-yl]-1H-pyrrolo[2,3-b]pyridine Hydrochloride] showed an IC50 (ERK-2 kinase) of 9.86 µM.

`Clc1cccc(-c2cn[nH]c2-c2c[nH]c3nc(NCc4ccccc4)ccc23)c1` [Example 3, Benzyl-{3-[4-(3-chlorophenyl)-2H-pyrazol-3-yl]-1H-pyrrolo[2,3-b]pyridin-6-yl}amine Dihydrochloride] gave an IC50 (ERK-2 kinase) of 2.23 µM.

`c1ccc(CNc2ccc3c(-c4[nH]ncc4-c4ccccc4)c[nH]c3n2)cc1` [Example 4, Benzyl-[3-(4-phenyl-2H-pyrazol-3-yl)-1H-pyrrolo[2,3-b]pyridin-6-yl]amine] gave an IC50 (ERK-2 kinase) of 11.3 µM.

From US8697697B2, “Pyrazole derivatives as ERK inhibitors” (Kinentia Biosciences LLC, priority 2011, dated 2014)
